Reference: PubChem BioAssay (NCI)
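Method: 48-hour compound exposure of cells in 96-well plates, five concentrations, linear interpolation of endpoints. GI50 = concentration required for 50% inhibition of growth. TGI marks complete inhibition of growth.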

Assays:
Test in all cases: growth of human tumour cells (NCI), 48 h
A498 renal = test system: A498 renal
T-47D breast = test system: T-47D breast
EKVX NSCLC = test system: EKVX NSCLC
K-562 leukemia = test system: K-562 leukemia
LOX IMVI melanoma = test system: LOX IMVI melanoma
MDA-MB-435 = test system: MDA-MB-435
HOP-62 NSCLC = test system: HOP-62 NSCLC
HCC-2998 colon = test system: HCC-2998 colon
OVCAR-3 ovarian = test system: OVCAR-3 ovarian
SK-MEL-28 melanoma = test system: SK-MEL-28 melanoma
SNB-19 CNS = test system: SNB-19 CNS
PC-3 prostate = test system: PC-3 prostate
786-0 renal = test system: 786-0 renal
RPMI-8226 leukemia = test system: RPMI-8226 leukemia
HOP-92 NSCLC = test system: HOP-92 NSCLC
U251 CNS = test system: U251 CNS
SN12C renal = test system: SN12C renal
SNB-75 CNS = test system: SNB-75 CNS
SR leukemia = test system: SR leukemia
A549 NSCLC = test system: A549 NSCLC
BT-549 breast = test system: BT-549 breast
OVCAR-5 ovarian = test system: OVCAR-5 ovarian
CCRF-CEM leukemia = test system: CCRF-CEM leukemia
SF-295 CNS = test system: SF-295 CNS
MALME-3M melanoma = test system: MALME-3M melanoma
HCT-15 colon = test system: HCT-15 colon
UACC-257 melanoma = test system: UACC-257 melanoma
M14 melanoma = test system: M14 melanoma
CAKI-1 renal = test system: CAKI-1 renal
RXF 393 renal = test system: RXF 393 renal
NCI-H226 lung = test system: NCI-H226 lung
HT29 colon = test system: HT29 colon
MDA-MB-231 breast = test system: MDA-MB-231 breast
TK-10 renal = test system: TK-10 renal
IGROV1 ovarian = test system: IGROV1 ovarian
COLO 205 colon = test system: COLO 205 colon
SK-OV-3 ovarian = test system: SK-OV-3 ovarian
DU-145 prostate = test system: DU-145 prostate
NCI/ADR-RES ovarian = test system: NCI/ADR-RES ovarian
UACC-62 melanoma = test system: UACC-62 melanoma
HL-60(TB) leukemia = test system: HL-60(TB) leukemia
NCI-H23 lung = test system: NCI-H23 lung
HS 578T breast = test system: HS 578T breast
OVCAR-8 ovarian = test system: OVCAR-8 ovarian
SF-268 CNS = test system: SF-268 CNS
MCF7 breast = test system: MCF7 breast
UO-31 renal = test system: UO-31 renal
KM12 colon = test system: KM12 colon
OVCAR-4 ovarian = test system: OVCAR-4 ovarian
ACHN renal = test system: ACHN renal
NCI-H460 lung = test system: NCI-H460 lung
SK-MEL-5 melanoma = test system: SK-MEL-5 melanoma
SF-539 CNS = test system: SF-539 CNS
SW-620 colon = test system: SW-620 colon
SK-MEL-2 melanoma = test system: SK-MEL-2 melanoma
HCT-116 colon = test system: HCT-116 colon
NCI-H522 lung = test system: NCI-H522 lung

Compound: C#C[C@]1(O)CC[C@H]2[C@@H]3CC=C4c5sc(-c6cccc(O)c6)nc5CC[C@]4(C)[C@H]3CC[C@@]21C
- GI50 (A498 renal): 15.2 µM
- TGI (A498 renal): 32.5 µM
- GI50 (T-47D breast): 2.58 µM
- TGI (T-47D breast): 7.27 µM
- GI50 (EKVX NSCLC): 2.5 µM
- TGI (EKVX NSCLC): 10.7 µM
- GI50 (K-562 leukemia): 0.506 µM
- TGI (K-562 leukemia): > 100 µM
- GI50 (LOX IMVI melanoma): 0.269 µM
- TGI (LOX IMVI melanoma): 1.26 µM
- GI50 (MDA-MB-435): 1.32 µM
- TGI (MDA-MB-435): 3.94 µM
- GI50 (HOP-62 NSCLC): 1.48 µM
- TGI (HOP-62 NSCLC): 4.39 µM
- GI50 (HCC-2998 colon): 1.81 µM
- TGI (HCC-2998 colon): 5.12 µM
- GI50 (OVCAR-3 ovarian): 2.48 µM
- TGI (OVCAR-3 ovarian): 7.46 µM
- GI50 (SK-MEL-28 melanoma): 0.236 µM
- TGI (SK-MEL-28 melanoma): 0.64 µM
- GI50 (SNB-19 CNS): 1.26 µM
- TGI (SNB-19 CNS): 4.28 µM
- GI50 (PC-3 prostate): 0.357 µM
- TGI (PC-3 prostate): 1.72 µM
- GI50 (786-0 renal): 0.386 µM
- TGI (786-0 renal): 1.88 µM
- GI50 (RPMI-8226 leukemia): 0.157 µM
- TGI (RPMI-8226 leukemia): 0.725 µM
- GI50 (HOP-92 NSCLC): 1.45 µM
- TGI (HOP-92 NSCLC): 3.07 µM
- GI50 (U251 CNS): 0.688 µM
- TGI (U251 CNS): 2.96 µM
- GI50 (SN12C renal): 2.3 µM
- TGI (SN12C renal): 9.98 µM
- GI50 (SNB-75 CNS): 0.319 µM
- TGI (SNB-75 CNS): 6.1 µM
- GI50 (SR leukemia): 0.46 µM
- TGI (SR leukemia): > 100 µM
- GI50 (A549 NSCLC): 2.57 µM
- TGI (A549 NSCLC): 11 µM
- GI50 (BT-549 breast): 1.07 µM
- TGI (BT-549 breast): 3.47 µM
- GI50 (OVCAR-5 ovarian): 2.25 µM
- TGI (OVCAR-5 ovarian): 5.93 µM
- GI50 (CCRF-CEM leukemia): 0.339 µM
- TGI (CCRF-CEM leukemia): > 100 µM
- GI50 (SF-295 CNS): 0.178 µM
- TGI (SF-295 CNS): 0.437 µM
- GI50 (MALME-3M melanoma): 0.421 µM
- TGI (MALME-3M melanoma): 2.98 µM
- GI50 (HCT-15 colon): 0.505 µM
- TGI (HCT-15 colon): 1.94 µM
- GI50 (UACC-257 melanoma): 1.86 µM
- TGI (UACC-257 melanoma): 4.63 µM
- GI50 (M14 melanoma): 0.252 µM
- TGI (M14 melanoma): 0.671 µM
- GI50 (CAKI-1 renal): 2.25 µM
- TGI (CAKI-1 renal): 5.15 µM
- GI50 (RXF 393 renal): 0.177 µM
- TGI (RXF 393 renal): 0.449 µM
- GI50 (NCI-H226 lung): 5.25 µM
- TGI (NCI-H226 lung): 25 µM
- GI50 (HT29 colon): 3.17 µM
- TGI (HT29 colon): 10.8 µM
- GI50 (MDA-MB-231 breast): 1.05 µM
- TGI (MDA-MB-231 breast): 4.1 µM
- GI50 (TK-10 renal): 2.76 µM
- TGI (TK-10 renal): 9.19 µM
- GI50 (IGROV1 ovarian): 2.98 µM
- TGI (IGROV1 ovarian): 10.3 µM
- GI50 (COLO 205 colon): 5.41 µM
- TGI (COLO 205 colon): 20.8 µM
- GI50 (SK-OV-3 ovarian): 2.07 µM
- TGI (SK-OV-3 ovarian): 6.83 µM
- GI50 (DU-145 prostate): 2.45 µM
- TGI (DU-145 prostate): 17.5 µM
- GI50 (NCI/ADR-RES ovarian): 1.95 µM
- TGI (NCI/ADR-RES ovarian): 5.58 µM
- GI50 (UACC-62 melanoma): 2.3 µM
- TGI (UACC-62 melanoma): 5.55 µM
- GI50 (HL-60(TB) leukemia): 0.835 µM
- TGI (HL-60(TB) leukemia): 6.12 µM
- GI50 (NCI-H23 lung): 1.55 µM
- TGI (NCI-H23 lung): 3.67 µM
- GI50 (HS 578T breast): 0.207 µM
- TGI (HS 578T breast): 0.642 µM
- GI50 (OVCAR-8 ovarian): 2.1 µM
- TGI (OVCAR-8 ovarian): > 100 µM
- GI50 (SF-268 CNS): 1.99 µM
- TGI (SF-268 CNS): 17.5 µM
- GI50 (MCF7 breast): 1.56 µM
- TGI (MCF7 breast): 4.39 µM
- GI50 (UO-31 renal): 0.46 µM
- TGI (UO-31 renal): 5.75 µM
- GI50 (KM12 colon): 1.15 µM
- TGI (KM12 colon): 5 µM
- GI50 (OVCAR-4 ovarian): 2.73 µM
- TGI (OVCAR-4 ovarian): 9.52 µM
- GI50 (ACHN renal): 0.687 µM
- TGI (ACHN renal): 6.72 µM
- GI50 (NCI-H460 lung): 2.57 µM
- TGI (NCI-H460 lung): 7.13 µM
- GI50 (SK-MEL-5 melanoma): 1.65 µM
- TGI (SK-MEL-5 melanoma): 3.06 µM
- GI50 (SF-539 CNS): 0.151 µM
- TGI (SF-539 CNS): 0.538 µM
- GI50 (SW-620 colon): 0.653 µM
- TGI (SW-620 colon): 2.36 µM
- GI50 (SK-MEL-2 melanoma): 0.528 µM
- TGI (SK-MEL-2 melanoma): 2.39 µM
- GI50 (HCT-116 colon): 0.993 µM
- TGI (HCT-116 colon): 3 µM
- GI50 (NCI-H522 lung): 1.48 µM
- TGI (NCI-H522 lung): 3.58 µM
